pIC50: −log10 of the molar value.
Experiments:
[1] = target: T1, Recombinant human KDR (VEGFR-2) (Homo sapiens, UniProt P35968); assay: Transcreener kinase assay of VEGFR-2 (KDR); type: biochemical; conditions: Poly E4Y substrate
T1 construct: purchased Invitrogen PV3660
Procedure: Transcreener kinase assay of VEGFR-2 (KDR)
1. Solution preparation • 1) Transcreenen™ KINASE Assy kit: Bellbrook Labs, 3003-10 K; • 2) Recombinant human KDR: Invitrogen, PV3660; • 3) Poly E4Y (substrate): Sigma, P0275; 5 mg/mL, dissolved in MilliQ water; • 4) Assay buffer: 67 mM HEPES, 0.013% Triton X-100, 27 mM MgCl2, 0.67 mM MnCl2 1.25 mM DTT, PH 7.4; • 5) 10 mM ATP: Invitrogen, PV3227; • 6) 500 mM EDTA: Invitrogen, 15575-038; • 7) 96 well black Greiner plate: Greiner, 675076.
2. Prepare solution • 1) Dilute the compound to 5 folds of final concentrations, keeping the DMSO concentration at 5%. The final concentrations are 1, 0.33, 0.11, 0.037, 0.012, 0.004, 0.0014, 0.0005 μM; and the final concentration of DMSO is 1%. • 2) Prepare Enzyme/Substrate stock, Recombinant human KDR and Poly E4Y are both diluted in assay buffer. The final concentration is KDR (0.3 ng/μL), Poly E4Y (62.5 ng/μL). The mixture is keeping on ice surface before use; • 3) Prepare ATP Diluents, 10 mM ATP is diluted in assay buffer, the final concentration is 25 μM; • 4) Prepare ADP Diluents: diluted ADP (500 μM) in assay buffer, the final concentration is 25 μM; • 5) Prepare ATP standard curve stock as following:
3. Enzymatic reaction • 1) Add 5 μL of compound or control. (positive control, 5 μL of 5% DMSO; negative control, 5 μL of 500 mM EDTA); • 2) Add 10 μL of Enzyme/Substrate stock; • 3) Add 10 μL of ATP Diluents to begin the enzyme reaction and mix on plate shaker; • 4) Add 5 μL 5% DMSO, 10 μL of assay buffer and 10 μL of ATP standard curve stock into standard curve wells; • 5) Incubate at 28° C. for 45 min, keeping plate in gently shaking.
4. Stop reaction and detect ADP • 1) Prepare Detection Mix: diluted ADP Alexa633 tracer (1:100), ADP antibody (1:158), and stop & detect buffer (1:10) by MilliQ water; • 2) Prepare Tracer Only control: diluted ADP Alexa633 tracer (1:100) and stop & detect buffer (1:10) by MilliQ water; • 3) Prepare No Tracer control: diluted stop & detect buffer (1:10) by MilliQ water; • 4) Add 25 μL of detection mix, Tracer Only control and No Tracer control into corresponding wells, respectively; • 5) Incubate at 28° C. for 1 h, keeping plate in gently shaking; • 6) Measure florescence polarization (FP) on TECAN F500. Excitation wavelength: 610 nm, Emission wavelength: 670 nm.
Wherein: • 1) Compound well [ADP] represents the ADP concentration of compound well. • 2) Positive control well [ADP] represents the ADP concentration of 5% DMSO well • 3) Conversion of mP value to ADP concentration based on the formula which determined by standard curve.
IC50: calculated using XL-Fit 2.0 software.

RBL-2H3 cells = assay: IgE-induced Beta-hexosaminidase secretion in RBL-2H3 cells; type: cell-based; conditions: Rattus norvegicus; RBL-2H3 cells sensitized with SPE-7, stimulated with DNP-BSA
Procedure: For the determination of IgE-induced Beta-hexosaminidase secretion, RBL-2H3 cells (SIBS) are seeded in 96 well plates at 4×10^4 cells per well and incubated in MEM media with 15% FBS and Glutamine ([…]) for 4 hours and sensitized with 0.5 ug/ml of SPE-7 overnight. Cells are washed 3 times with Tyrode's buffer and incubated in the presence or absence of various concentrations of the testing compound for 20 min at 37° C., 5% CO2. Cells are stimulated by adding 10 μL of DNP-BSA solution (150 ng/mL) to each well and incubating for 45 minutes at 37° C., 5% CO2. Then, 45 μL of the supernatant is taken and incubated with 100 μL of 1 mM 4-Nitrophenyl N-acetyl-β-D-glucosaminide (Sigma, Cat. No. N9376), which is diluted in 0.05 M citrate buffer (pH 4.5), for 1.5 hr at 37° C. The reactions are quenched by adding 185 μL of 0.05 M sodium carbonate buffer (pH 10.0). Plates are read at 405 nm on Multiskan (MK 3).

Flt3 kinase = target: T2, Flt3 kinase (Homo sapiens, UniProt P36888); assay: Z-lyte kinase assay of Flt-3; type: biochemical; conditions: Z-LYTE Tyr 2 peptide; final concentrations 3 to 0.0014 μM
T2 construct: purchased Invitrogen PV3182
T2 sequence (P36888 564-993 limits assumed): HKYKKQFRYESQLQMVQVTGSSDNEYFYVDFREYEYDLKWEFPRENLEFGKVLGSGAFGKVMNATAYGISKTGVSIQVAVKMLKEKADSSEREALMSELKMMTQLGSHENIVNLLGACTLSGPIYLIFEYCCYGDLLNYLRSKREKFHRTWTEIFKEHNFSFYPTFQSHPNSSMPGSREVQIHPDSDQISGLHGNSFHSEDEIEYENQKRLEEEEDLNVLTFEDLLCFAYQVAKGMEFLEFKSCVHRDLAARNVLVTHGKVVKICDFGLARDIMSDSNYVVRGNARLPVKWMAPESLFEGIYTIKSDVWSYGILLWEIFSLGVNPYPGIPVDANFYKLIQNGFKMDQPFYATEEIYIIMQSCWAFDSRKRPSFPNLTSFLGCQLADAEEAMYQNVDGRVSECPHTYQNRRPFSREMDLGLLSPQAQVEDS
Procedure: Z-lyte kinase assay of Flt-3:
Dilute 5× Kinase Buffer to 1,33× with ddH2O
Serially dilute the test compounds to 4 folds of the concentrations desired, keeping the DMSO concentration at 8%. The final concentrations were 3, 1, 0.33, 0.11, 0.037, 0.012, 0.004, 0.0014 μM, and the final concentration of DMSO was 2%,
Prepare Kinase/Peptide Mixture by diluting the kinase to 0.12 μg/mL and the Z-LYTE™ Tyr 2 peptide to 4 μM in 1.33× Kinase Buffer. Mix gently by pipetting. 4) Phcspho-peptide Solution (PP solution)
Add 0.4 μL of Z-LYTE™ Tyr 2 Phospho-peptide to 99.6 μL of 1.33× Kinase Buffer.
Prepare ATP Solution by diluting the 10 mM of ATP in 1.33× Kinase Buffer to 1.88 mM.
Dilute Development Reagent A with Development Buffer as 1:64.
1) Kinase reaction (10 μL of Volume) • a. Add 2.5 μL of 4× test Cpds to each well except C1, C2, C3 wells
Add 2.5 μL of 8% DMSO to C1, C2, C3 wells • b. Put the 384-plate on ice • c. Add 5 μL of P/K mixture to each test Cpd wells and C1, C2 wells • d. Add 5 μL of PP Solution to C3 well • e. Add 2.5 μL of 1,33× kinase buffer to C1 and C3 wells • f. Add 2.5 μL of 4×ATP Solution to each test Cpd wells and C2 well, respectively.
Shake the plate for 30 Sec and centrifuge (1500 rpm, 1 min) • g. Seal the plate to protect from the light and incubate the plate for 1 hour at RT (25-30° C.) 2) Development reaction • a. Add 5 μL of the Development solution to all wells • b. Shake the plate for 30 Sec and centrifuge (1500 rpm, 1 min) • c. Seal the plate to protect from the light and incubate the plate for 1 hour at RT (25-30° C.) 3) Stop and read • a. Add 5 μL of the Stop reagent to all wells • b. Shake the plate for 30 Sec and centrifuge (1500 rpm, 1 min) • c. Measure the value of Coumarin (Ex400 nm, Em445 nm) and fluorescein (Ex400 nm, Em520 nm), respectively. 4. Data analysis
Emission Ratio (ER) Coumarin Emission (445 nm)/Fluorescein Emission (520 nm)
inhibition ratio (IR)=1−% Photest Cpd/% PhoC2%
IC50 Value: determined with add-in software for Microsoft Excel, XLfit™ (version 2.0) from ID Business Solutions (Guildford: UK)

T1 sequence (P35968 789-1356 limits assumed): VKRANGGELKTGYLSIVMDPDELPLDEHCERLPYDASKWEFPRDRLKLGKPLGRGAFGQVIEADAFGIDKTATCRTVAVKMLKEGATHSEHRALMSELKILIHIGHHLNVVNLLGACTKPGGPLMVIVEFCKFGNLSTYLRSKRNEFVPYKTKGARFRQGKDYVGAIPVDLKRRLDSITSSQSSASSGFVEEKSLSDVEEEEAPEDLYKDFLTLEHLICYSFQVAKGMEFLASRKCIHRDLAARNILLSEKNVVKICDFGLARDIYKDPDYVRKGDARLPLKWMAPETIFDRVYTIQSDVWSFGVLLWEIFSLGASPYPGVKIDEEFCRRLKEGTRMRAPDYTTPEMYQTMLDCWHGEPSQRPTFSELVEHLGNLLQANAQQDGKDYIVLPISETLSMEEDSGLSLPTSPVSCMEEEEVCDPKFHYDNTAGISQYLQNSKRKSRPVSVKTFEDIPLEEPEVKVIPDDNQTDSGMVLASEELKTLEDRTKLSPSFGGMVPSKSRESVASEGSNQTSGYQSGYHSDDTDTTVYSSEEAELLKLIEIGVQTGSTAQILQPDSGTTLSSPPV

| SMILES | pIC50 [1] | pIC50 (Flt3 kinase) | pIC50 (RBL-2H3 cells) |
| --- | --- | --- | --- |
| COc1ccc(-c2cc3nccnc3c(OC[C@@H]3CN(S(C)(=O)=O)CCO3)n2)cc1OC [Compound 43] | < 5.52 | 5.80 | 7.00 to 9.00 |
| CN(C)c1ccc(-c2cc3nccnc3c(OC[C@@H]3CN(S(C)(=O)=O)CCO3)n2)cc1F [Compound 53] | 5.53 |  | 7.00 to 9.00 |
| CN(C)c1ccc(-c2cc3nccnc3c(OC[C@@H]3CN(S(C)(=O)=O)CCO3)n2)cc1Cl [Compound 108] | < 5.52 | 5.62 | 7.00 to 9.00 |

Compounds with a higher pIC50 [1], results first:

| pIC50 [1] | pIC50 (Flt3 kinase) | SMILES | pIC50 (RBL-2H3 cells) |
| --- | --- | --- | --- |
| 5.81 | 5.79 | CS(=O)(=O)N1CCC(c2ccc(-c3cc4nccnc4c(OC[C@@H]4CN(S(C)(=O)=O)CCO4)n3)cc2)CC1 [Compound 57, (S)-4-(methylsulfonyl)-2-((7-(4-(1-(methylsulfonyl)piperidin-4-yl)phenyl)pyrido[4,3,-b]pyrazin-5-yloxy)methyl)morpholine] | 7.00 to 9.00 |
| 5.80 |  | CS(=O)(=O)N1CCN(c2ccc(-c3cc4nccnc4c(OC[C@@H]4CN(S(C)(=O)=O)CCO4)n3)cc2)CC1 [Compound 26] | 6.00 to 7.00 |
| 5.88 |  | CC(=O)N1CCC(c2ccc(-c3cc4nccnc4c(OC[C@@H]4CN(S(C)(=O)=O)CCO4)n3)cc2)CC1 [Compound 33] | 7.00 to 9.00 |

— patent US20150307491A1, “SUBSTITUTED PYRIDOPYRAZINES AS SYK INHIBITORS” (HUTCHISON MEDIPHARMA LIMITED, priority 2012, published 2015)
